Data taken from patent publication EP0543245A1, “Renin inhibiting amino acid derivatives” (F. HOFFMANN-LA ROCHE AG, priority 1991, dated 1993).

biological target: T1, Human-Renin (Homo sapiens, UniProt P00797); assay: In vitro test with pure human renin; format: biochemical; details: human tetradecapeptide renin substrate (hTD), pH 7.4, 3 h at 37°C vs 4°C, angiotensin I measured by RIA, read-out: IC₅₀-Werte
T1 sequence (P00797 67-406): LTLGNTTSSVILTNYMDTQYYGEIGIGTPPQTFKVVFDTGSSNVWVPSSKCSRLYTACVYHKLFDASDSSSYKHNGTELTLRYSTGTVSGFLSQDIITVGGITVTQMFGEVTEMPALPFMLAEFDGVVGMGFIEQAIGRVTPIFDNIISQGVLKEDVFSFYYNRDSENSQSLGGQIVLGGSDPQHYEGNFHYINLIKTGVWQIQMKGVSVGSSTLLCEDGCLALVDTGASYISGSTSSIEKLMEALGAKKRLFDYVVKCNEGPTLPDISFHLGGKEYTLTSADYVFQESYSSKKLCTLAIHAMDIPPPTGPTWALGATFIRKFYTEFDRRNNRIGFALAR
Method: In vitro-Test mit reinem Human-Renin
Der Test wird in Eppendorf Röhrchen durchgeführt. Die Inkubationsmischung besteht aus (1) 100 µl Human-Renin in Puffer A (0,1M Natriumphosphatlösung, pH 7.4, enthaltend 0,1% Rinderserumalbumin, 0,1% Natriumazid und 1 mM Aethylendiamintetraessigsäure), genügend für eine Renin-Aktivität von 2-3 ng Angiotensin I/ ml/Std.; (2) 145 µl Puffer A; (3) 30 µl von 10 µM humanem Tetradekapeptid-Reninsubstrat (hTD) in 10 mM Salzsäure; (4) 15 µl Dimethylsulfoxid mit bzw. ohne Hemmer und (5) 10 µl einer 0,03 molaren Lösung von Hydroxychinolinsulfat in Wasser.
Die Proben werden drei Stunden bei 37°C bzw. 4°C in Triplikaten inkubiert. 2 x 100 µl Proben pro Versuchsröhrchen werden dann verwendet, um die Produktion von Angiotensin I via RIA (standard radioimmunoassay; Clinical Assay solid phase kit) zu messen. Kreuzreaktivitäten der verwendeten Antikörper im RIA sind: Angiotensin I 100%; Angiotensin II 0,0013%; hTD (Angiotensin I-Val-Ile-His-Ser-OH) 0,09%. Die Produktion von Angiotensin I wird durch die Differenz zwischen dem Versuch bei 37°C und demjenigen bei 4°C bestimmt.
Folgende Kontrollen werden mitgeführt: • (a) Inkubation von hTD-Proben ohne Renin und ohne Hemmer bei 37°C und 4°C. Die Differenz zwischen diesen beiden Werten ergibt den Grundwert der Angiotensin I-Produktion. • (b) Inkubation von hTD-Proben mit Renin, jedoch ohne Hemmer bei 37°C und 4°C. Die Differenz zwischen diesen Werten ergibt den Maximalwert der Angiotensin I-Produktion.
In jeder Probe wird von der ermittelten Angiotenin I-Produktion der Grundwert der Angiotensin I-Produktion abgezogen. Die Differenz zwischen dem Maximalwert und dem Grundwert ergibt den Wert der maximalen Substrathydrolyse (=100%) durch Renin.
Die Resultate werden als IC₅₀-Werte angegeben, welche diejenige Konzentration des Hemmers bezeichnen, bei welcher die enzymatische Aktivität um 50% gehemmt wird. Die IC₅₀-Werte werden aus einer linearen Regressionskurve aus einem logit-log plot ermittelt.

| SMILES | IC50 |
| --- | --- |
| O=C(N[C@@H](CC1CCCCC1)[C@@H](O)[C@@H](O)C1CC1)C(Cc1cccnc1)c1nnc2c(C3CC3)nc(-c3cccnc3)cn12 (single isomer, unassigned) [A] | 51 nM |
| O=C(N[C@@H](CC1CCCCC1)[C@@H](O)[C@@H](O)C1CC1)C(Cc1cscn1)c1nnc2c(C3CC3)nc(-c3cccnc3)cn12 (single isomer, unassigned) [B] | 2 nM |
| O=C(N[C@@H](CC1CCCCC1)[C@@H](O)[C@@H](O)C1CC1)C(Cc1cccnc1)c1nnc2c(CC3CC3)nc(-c3cccnc3)cn12 (single isomer, unassigned) [C] | 17 nM |
| O=C(N[C@@H](CC1CCCCC1)[C@@H](O)[C@@H](O)C1CC1)C(Cc1cscn1)c1nnc2c(CC3CC3)nc(-c3cccnc3)cn12 (single isomer, unassigned) [D] | 2.3 nM |
| CC(C)Cc1nc(-c2cccnc2)nn2c(C(Cc3cccnc3)C(=O)N[C@@H](CC3CCCCC3)[C@@H](O)[C@@H](O)C3CC3)nnc12 (single isomer, unassigned) [F] | 150 nM |
| O=C(N[C@@H](Cc1ccccc1)[C@@H](O)[C@@H](O)C1CC1)C(Cc1cccnc1)c1nnc2c(C3CC3)nc(-c3cccnc3)cn12 (stereo partly drawn) [E, (R,S)-N-[(1S,2R,3S)-1-Benzyl-3-cyclopropyl-2,3-dihydroxypropyl]-8-cyclopropyl-6-(3-pyridyl)-α-(3-pyridylmethyl)-s-triazolo[4,3-a]pyrazin-3-acetamid] | 100 nM |
| C=CCC(C(=O)N[C@@H](CC1CCCCC1)[C@@H](O)[C@@H](O)C1CC1)c1nnc2c(CCC)nc(-c3cccnc3)cn12 (stereo partly drawn) [G, (R,S)-α-Allyl-N-[(1S,2R,3S)-1-(cyclohexylmethyl)3-cyclopropyl-2,3-dihydroxypropyl]-8-propyl-6-(3-pyridyl)-s-triazolo[4,3-a]pyrazin-3-acetamid] | 16 nM |
